Columns and labels:
Botrytis cinerea = experiment: Inhibition halo for BLAD with and without EDTA against Botrytis cinerea on Potato Dextrose Agar; format: cell-based
Protocol: Inhibition Halo Data for BLAD with and without EDTA Against Botrytis cinerea on Potato Dextrose Agar (PDA) at 1.2% w/v of Agar (Incubation 3 Days at 25° C.): […]

Streptomyces griseus = experiment: MIC of BLAD and EDTA against Streptomyces griseus; format: cell-based; details: EDTA alone
Fusarium oxysporum = experiment: Inhibition halo for BLAD with and without EDTA against Fusarium oxysporum on Potato Dextrose Agar; format: cell-based
Protocol: Inhibition Halo Data for BLAD with and without EDTA Against Fusarium oxysporum on Potato Dextrose Agar (PDA) at 1.2% w/v of Agar (Incubation 3 Days at 25° C.): […]

Erwinia pirsicina = experiment: MIC of BLAD and EDTA against Erwinia pirsicina; format: cell-based; details: EDTA alone
P. aeruginosa = experiment: Bacteriostatic/bactericidal activity of BLAD, EDTA and their combination against P. aeruginosa; format: cell-based, Pseudomonas aeruginosa; details: EDTA at 1 mg/ml alone
[1] = EDTA 50 mM alone, PDA 1.2% w/v agar, 3 days at 25° C.
[2] = EDTA 50 mM alone, individual replicates, PDA 1.2% w/v agar, 3 days at 25° C.

With `O=C(O)CN(CCN(CC(=O)O)CC(=O)O)CC(=O)O` [EDTA, ethylenediaminetetraacetic acid] the “Average inhibition halo diameter” value (Botrytis cinerea; [1]) was 0 mm, the Inhibition halo diameter (Botrytis cinerea; [2]) was 0 mm and the “growth inhibition (in words)” value (Botrytis cinerea; EDTA alone at 50 mM) was “No growth inhibition”. For the same compound, the MIC (Streptomyces griseus) was 16 mM, the “Average inhibition halo diameter” value (Fusarium oxysporum; [1]) was 0 mm and the Inhibition halo diameter (Fusarium oxysporum; [2]) was 0 mm. For the same compound, the “growth inhibition (in words)” value (Fusarium oxysporum; EDTA alone at 50 mM) was “No growth inhibition”, the MIC (Erwinia pirsicina) was 15 mM and the effect on growth (P. aeruginosa) was “inhibits growth”.

Source: patent US10265376B2, “Use of chelating agent and peptide antimicrobial compounds” (Consumo Em Verde Biotecnologia Das Plantas, S.A., priority 2010, dated 2019)
